Measured values reported in ChEMBL document CHEMBL5385914 (J Med Chem, 2024).
One block for each compound: values may come before it. Calls of active or inactive are those of the source. No cut-off for these calls is given here.

Legend:
[1] = tested on: A2780; assay: Antiproliferative activity against human A2780 cells assessed as inhibition of cell growth; assay type: functional, cell-based
[2] = target: Tubulin; assay: Displacement of fluorescent probe (R)-(+)-ethyl 5-amino2-methyl-1,2-dihydro-3-phenylpyrido[3,4-b]pyrazin-7-ylcarbamate from tubulin colchicine binding site (unknown origin) assessed as dissociation constant; assay type: protein-complex assay, Homo sapiens
[3] = Antiproliferative activity against human A2780AD cells overexpressing P-gp assessed as inhibition of cell growth; assay type: functional, cell-based
[4] = tested on: HeLa; assay: cells; details: Homo sapiens
Description: Antiproliferative activity against human HeLa cells assessed as inhibition of cell growth

[5] = tested on: A549; assay: cells; details: Homo sapiens
Description: Antiproliferative activity against human A549 cells assessed as inhibition of cell growth

[6] = tested on: HeLa; assay: cells; details: Homo sapiens; remark: listed apart in the source
Description: Antiproliferative activity against human HeLa cells expressing tubulin betaIII assessed as inhibition of cell growth

[7] = tested on: A549; assay: cells; details: Homo sapiens, A549, 48 h
[8] = tested on: HeLa; assay: cells; details: Homo sapiens, 48 h
[9] = tested on: HeLa; assay: cells; details: Homo sapiens, 48 h; remark: listed apart in the source
[10] = cells; details: Homo sapiens, A2780AD, 48 h
[11] = tested on: NCI-H460; assay: Antitumor activity against human NCI-H460 cells xenografted in athymic nu/nu mouse assessed as mean survival time at 1.7 mg/kg, iv administered once a week for 2 weeks; assay type: functional
[12] = tested on: NCI-H460; assay: Antitumor activity against human NCI-H460 cells xenografted in athymic nu/nu mouse assessed as increase in apoptosis by measuring number of apoptotic nuclei in tumor at 2.5 mg/kg, iv administered once a week for 2 weeks and measured 24 hrs post last dose by Hoechst 33258 staining based fluorescence microscopic analysis (reference value: 1 +/- 0.1); assay type: functional; details: time 15 day
[13] = tested on: NCI-H460; assay: Antitumor activity against human NCI-H460 cells xenografted in athymic nu/nu mouse assessed as mean survival time at 2.5 mg/kg, iv administered once a week for 2 weeks; assay type: functional
[14] = Toxicity in athymic nu/nu mouse xenografted with human NCI-H460 cells assessed as reduction in body weight at 2.5 mg/kg, iv measured on day 7; assay type: organism-based; parameters: scale not given: the % may be the effect or the level left; details: in vivo, 168 h, time 7 day
[15] = tested on: NCI-H460; assay: Antitumor activity against human NCI-H460 cells xenografted in athymic nu/nu mouse assessed as median tumor volume at 1.1 mg/kg, iv measured on day 7 by digital caliper based analysis; assay type: functional; details: time 7 day
[16] = target: T1, Tubulin (Homo sapiens) (UniProt P68371+Q9H4B7+P0DPH7+P68366+Q13509+Q71U36+P04350+Q3ZCM7+P07437+P68363+Q9BQE3+Q6PEY2+Q13885+Q9BVA1+Q9BUF5); assay: Disruption of microtubule network in human A549 cells assessed as disorganization of tubulin cytoskeleton during interphase incubated for 24 hrs by immunofluorescence staining based epifluorescence microscopic analysis; assay type: cell-based
[17] = tested on: NCI-H460; assay: Antitumor activity against human NCI-H460 cells xenografted in athymic nu/nu mouse assessed as median tumor volume at 2.5 mg/kg, iv measured on day 7 by digital caliper based analysis; assay type: functional; details: time 7 day
[18] = target: T1, Tubulin (Homo sapiens); assay: Disruption of microtubule network in human A549 cells assessed as reduction in number and length of microtubules incubated for 24 hrs by immunofluorescence staining based epifluorescence microscopic analysis; assay type: cell-based
[19] = tested on: NCI-H460; assay: Antitumor activity against human NCI-H460 cells xenografted in athymic nu/nu mouse assessed as reduction in tumor size at 0.75 mg/kg, iv administered once a week for 2 weeks by digital caliper based analysis; assay type: functional, organism-based
[20] = Toxicity in athymic nu/nu mouse xenografted with human NCI-H460 cells assessed as reduction in body weight at 2.5 mg/kg, iv measured on day 5; assay type: organism-based; parameters: scale not given: the % may be the effect or the level left; details: in vivo, 120 h, time 5 day
[21] = target: T1, Tubulin (Homo sapiens); assay: Disruption of microtubule network in human A549 cells assessed as appearance of aberrant chromosome distribution incubated for 24 hrs by immunofluorescence staining based epifluorescence microscopic analysis; assay type: cell-based
[22] = tested on: NCI-H460; assay: Antitumor activity against human NCI-H460 cells xenografted in athymic nu/nu mouse assessed as mean survival time at 0.75 mg/kg, iv administered once a week for 2 weeks; assay type: functional
[23] = target: Tubulin (Bos taurus, UniProt Q6B856+Q862L2+Q862F3); assay: Displacement of fluorescent probe (R)-(+)-ethyl 5-amino2-methyl-1,2-dihydro-3-phenylpyrido[3,4-b]pyrazin-7-ylcarbamate from calf brain tubulin colchicine binding site assessed as dissociation constant at 0.05 to 70 uM incubated for 30 mins by fluorescence based assay
[24] = tested on: NCI-H460; assay: Antitumor activity against human NCI-H460 cells xenografted in athymic nu/nu mouse assessed as reduction in tumor size at 1.1 to 2.5 mg/kg, iv administered once a week for 2 weeks by digital caliper based analysis; assay type: functional, organism-based; details: dose 1.1-2.5 mg/kg
[25] = Inhibition of human recombinant alpha1beta3 tubulin expressed in Sf9 insect cells at 5 to 27.5 uM incubated for 70 mins by […]; details: dose 5-27.5 µM
[26] = target: T1, Tubulin (Homo sapiens); assay: Disruption of microtubule network in human A549 cells assessed as induction of cellular landscape at 1 nM incubated for 24 hrs by immunofluorescence staining based epifluorescence microscopic analysis; assay type: cell-based
[27] = target: T2, Tubulin (Bos taurus) (UniProt Q6B856+Q862L2+Q862F3); assay: Inhibition of calf brain tubulin assembly measured upto 100 mins; details: dose 0.625-5 µM
[28] = tested on: NCI-H460; assay: Antitumor activity against human NCI-H460 cells xenografted in athymic nu/nu mouse assessed as increase in survival time at 1.1 to 2.5 mg/kg, iv administered once a week for 2 weeks; assay type: functional, organism-based; details: dose 1.1-2.5 mg/kg
[29] = target: T1, Tubulin (Homo sapiens); assay: Disruption of microtubule network in human A549 cells assessed as reduction in mitotic spindle formation incubated for 24 hrs by immunofluorescence staining based epifluorescence microscopic analysis; assay type: cell-based
[30] = target: T1, Tubulin (Homo sapiens); assay: Disruption of microtubule network in human A549 cells assessed as appearance of cellular phenotype with hypercondensed chromatin incubated for 24 hrs by immunofluorescence staining based epifluorescence microscopic analysis; assay type: cell-based
[31] = target: T2, Tubulin (Bos taurus); assay: Displacement of 2-methoxy-5-(2,3,4-trimethoxyphenyl)-2,4,6-cycloheptatriene-1-one from calf brain tubulin colchicine site
[32] = tested on: NCI-H460; assay: Antitumor activity against human NCI-H460 cells xenografted in athymic nu/nu mouse assessed as median tumor volume at 0.75 mg/kg, iv measured on day 7 by digital caliper based analysis; assay type: functional; details: time 7 day
[33] = Toxicity in athymic nu/nu mouse xenografted with human NCI-H460 cells assessed as reduction in body weight at 2.5 mg/kg, iv measured on day 2; assay type: organism-based; parameters: scale not given: the % may be the effect or the level left; details: in vivo, 48 h, time 2 day
[34] = tested on: A2780; assay: cells; details: Homo sapiens, A2780, 48 h
[35] = Toxicity in athymic nu/nu mouse xenografted with human NCI-H460 cells assessed as clinical signs of systemic toxicity at 2.5 mg/kg, iv administered once a week for 2 weeks; assay type: organism-based; details: in vivo, 336 h
[36] = tested on: NCI-H460; assay: Antitumor activity against human NCI-H460 cells xenografted in athymic nu/nu mouse assessed as median tumor volume at 1.7 mg/kg, iv measured on day 7 by digital caliper based analysis; assay type: functional; details: time 7 day
[37] = tested on: NCI-H460; assay: Antitumor activity against human NCI-H460 cells xenografted in iv dosed athymic nu/nu mouse assessed as reduction in tumor volume administered once a week for 2 weeks and measured 2 to 3 times per week by digital caliper based analysis; assay type: functional, organism-based; details: dose 0.25-2.5 mg/kg
[38] = tested on: NCI-H460; assay: Antitumor activity against human NCI-H460 cells xenografted in athymic nu/nu mouse assessed as mean survival time at 1.1 mg/kg, iv administered once a week for 2 weeks; assay type: functional
[39] = tested on: NCI-H460; assay: Antitumor activity against human NCI-H460 cells xenografted in athymic nu/nu mouse assessed as increase in survival time at 0.75 mg/kg, iv administered once a week for 2 weeks; assay type: functional, organism-based
[40] = target: T2, Tubulin (Bos taurus); assay: Binding affinity to calf brain tubulin colchicine binding site assessed as Koff at 3 uM incubated for 30 mins by fluorescence based photon-counting instrument
[41] = target: T1, Tubulin (Homo sapiens)

- IC50 [1]: 23 nM
- Kd [2]: 3 nM
Compound: COCc1cc2cccc(NC(C)=C3C(=O)CC(c4ccccc4)CC3=O)c2o1 (stereo not given)
- IC50 [3]: 39 nM

Compound: COc1cc2c(c(OC)c1OC)-c1ccc(OC)c(=O)cc1[C@@H](NC(C)=O)CC2 [COLCHICINE]
- IC50 [4]: 11 nM
- IC50 [5]: 49 nM
- IC50 [6]: 19 nM
- IC50 [3]: 537 nM

Compound: COc1cc([C@@H]2c3cc4c(cc3[C@H](O)[C@H]3COC(=O)[C@H]23)OCO4)cc(OC)c1OC [PODOFILOX]
- IC50 [7]: 16 nM
- IC50 [8]: 15.5 nM
- IC50 [9]: 18 nM
- IC50 [10]: 20 nM

Compound: CCC[C@@H](NC(=O)[C@]1(C)CSC(/C(C)=N/O)=N1)c1cc(OCC2CC2)cc(=O)o1
- IC50 [7]: 1.5 nM
- IC50 [8]: 1.6 nM
- MST [11]: 20 days
- Activity [12]: 10
- MST [13]: 21 days
- Activity [14]: -2.9%
- Activity [15]: 947.3 mm3
- Activity [16]: Active
- Activity [17]: 260.4 mm3
- Activity [18]: Active
- Activity [19]: inactive
- Activity [20]: -4.5%
- Activity [21]: Active
- MST [22]: 10.5 days
- Kd [23]: 20 nM
- Activity [24]: Active
- inhibition [25]: Active
- Activity [26]: Active
- inhibition [27]: Dose-Dependent Effect
- Activity [28]: Active
- Activity [29]: Active
- Activity [30]: Active
- Activity [31]: 100%
- Activity [32]: 1395 mm3
- Activity [33]: 11.2%
- IC50 [34]: 1.4 nM
- Activity [35]: Non-Toxic
- Activity [36]: 580 mm3
- IC50 [9]: 1.3 nM
- Activity [37]: Dose-Dependent Effect
- MST [38]: 16 days
- IC50 [10]: 3.2 nM
- Activity [39]: inactive

Compound: COc1cc2cc(c1Cl)N(C)C(=O)C[C@H](OC(=O)[C@H](C)N(C)C(C)=O)[C@]1(C)O[C@H]1[C@H](C)[C@@H]1C[C@@](O)(NC(=O)O1)[C@H](OC)/C=C/C=C(\C)C2 [MAYTANSINE]
- IC50 [7]: 0.59 nM
- IC50 [8]: 0.33 nM
- IC50 [34]: 0.74 nM
- IC50 [9]: 1.1 nM
- IC50 [10]: 19 nM

Compound: COc1ccc(-c2ccc(OC)c(=O)cc2)c(OC)c1OC
- K [40]: 6 s⁻¹

- IC50 [7]: 1.5 nM
- IC50 [8]: 0.54 nM
- IC50 [34]: 1.5 nM
- IC50 [9]: 4.4 nM
- IC50 [10]: 70 nM
Compound: CC[C@]1(O)C[C@@H]2CN(CCc3c([nH]c4ccccc34)[C@@](C(=O)OC)(c3cc4c(cc3OC)N(C)[C@H]3[C@@](O)(C(=O)OC)[C@H](OC(C)=O)[C@]5(CC)C=CCN6CC[C@]43[C@@H]65)C2)C1 [VINBLASTINE]

- IC50 [8]: 1.1 nM
- IC50 [9]: 20 nM
- IC50 [10]: 392 nM
Compound: CC(=O)O[C@H]1C(=O)[C@@]2(C)[C@H]([C@H](OC(=O)c3ccccc3)[C@]3(O)C[C@H](OC(=O)[C@H](O)[C@@H](NC(=O)c4ccccc4)c4ccccc4)C(C)=C1C3(C)C)[C@]1(OC(C)=O)CO[C@@H]1C[C@@H]2O [PACLITAXEL]

- Ka [41]: 3 10^8/M
Compound: COc1ccc(/C=C\c2cc(OC)c(OC)c(OC)c2)cc1O

Compound: CCC[C@@H](NC(=O)[C@]1(C)CSC(/C(C)=N/O)=N1)c1cc(OC)cc(=O)o1
- IC50 [7]: 23 nM
- IC50 [8]: 19 nM
- Kd [23]: 960 nM
- IC50 [34]: 22 nM
- IC50 [9]: 28 nM
- IC50 [10]: 54 nM
